Where two headings read alike, the source gives them in different places.
Target: aggregated MBP-HTT(1-89)Q46-His(6×) (Exonl-Q46) protein (Q46 protein aggregates) (Homo sapiens (Human), UniProt P42858, INS38QQQQQQQQQQQQQQQQQQQQQQQQQ)
Test: Q46 Radioligand Binding Assay
Conditions: read-out: Q46_RBA EC50_
Experimental: Q46 Radioligand Binding Assay
For radioligand binding assays (RBA) MBP-HTT(1-89)Q46-His(6×) (“Exonl-Q46”) protein was generated based on a previous publication (Scherzinger et al. Cell, Vol. 90, 549-558, Aug. 8, 1997). For experiments 30 μM MBP-Exonl-Q46 was incubated with 150 μg/mL thrombin in assay buffer (150 mM NaCl, 50 mM Tris pH 8.0) and 2 mM CaCl2 for 16 hours at 37° C. Aggregated Exonl-Q46 was pelleted by centrifugation for 5 minutes at 13,000 rpm in a bench top centrifuge and re-dissolved in the same volume of assay buffer. Test compounds were prepared by titration in DMSO at 11 concentrations from 63 μM to 2 nM. For the RBA, Q46 protein aggregates and test compounds were pre-incubated in assay buffer for 20 minutes at room temperature, in 100 μL/well in a 96-well plate (pp, round bottom). Then, ligand was added in 50 μL/well and incubated for 60 minutes at 37° C. Final assay concentrations were 1 μM to 30 μM test compound, 1 μM Exonl-Q46 protein (equivalent monomer concentration) and 0.3 nM ligand [^3H3-methyl]-5-((5-methoxypyridin-2-yl)methoxy)-2-(pyrazin-2-yl)benzo[d]oxazole. Samples were transferred onto GF/B filter plates and washed 2× with 200 μL PBS using a Filtermate Harvester. After drying filter plates for 1 hour at 55° C., the back of the plates were sealed with foil and 30 μL/well scintillation fluid (Packard MicroScint 40) added, incubated for 15 minutes in the dark and counted in a MicroBeta reader. For analysis, replicate data from independent assay plates were normalized towards 0% and 100% inhibition using control wells of vehicle (0% inhibition) and 1 μM unlabelled [^3H3-methyl]-5-((5-methoxypyridin-2-yl)methoxy)-2-(pyrazin-2-yl)benzo[d]oxazole (100% inhibition). IC50 values were determined with a sigmoidal inhibition model with four variables (top, bottom, slope, IC50) in a global fit using the normalized replicate data.

[1] = displacement of 0.3 nM [3H3-methyl]-5-((5-methoxypyridin-2-yl)methoxy)-2-(pyrazin-2-yl)benzo[d]oxazole from 1 μM Exonl-Q46 aggregates, method calls the values IC50
[2] = same radioligand displacement on Exonl-Q46 aggregates

Sequence of aggregated MBP-HTT(1-89)Q46-His(6×) (Exonl-Q46) protein (Q46 protein aggregates) (P42858 other isoform, or with tags, fused parts or gaps, stated change not applied): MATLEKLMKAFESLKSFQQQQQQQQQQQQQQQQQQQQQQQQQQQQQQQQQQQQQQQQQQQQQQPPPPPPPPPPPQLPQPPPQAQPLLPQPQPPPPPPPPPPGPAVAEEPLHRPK

| EC50 [1] | EC50 [2] | SMILES |
| --- | --- | --- |
| 1.96 nM | < 100 nM | COc1ccc(COc2ccc3c(c2)CN(C(=O)c2ccc(OCF)nc2)CC3)nc1 [Example 36, (6-(Fluoromethoxy)pyridin-3-yl)(7-((5-methoxypyridin-2-yl)methoxy)-3,4-dihydroisoquinolin-2(1H)-yl)methanone] |
| 36.5 nM | < 100 nM | COc1ccc(COc2ccc3c(c2)CN(C(=O)OCC(C)C)CC3)nc1 [Example 33, 2-Methylpropyl 7-[(5-methoxypyridin-2-yl)methoxy]-1,2,3,4-tetrahydroisoquinoline-2-carboxylate] |
| 2.65 nM | < 100 nM | COc1ccc(COc2ccc3c(c2)CN(c2cncc(OC)c2)CC3)nc1 [Example 6.1] |
| 333 nM | 100 to 500 nM | COc1ccc2c(c1)CN(C(=O)c1ccc(OC)nc1)CC2 [Example 1.6] |
| 704 nM | > 500 nM | COc1ccc(OCCn2cnc3c2CN(C(=O)c2ccc(OC)nc2)CC3)nc1 [Example 30, 2-Methoxy-5-(3-{2-[(5-methoxypyridin-2-yl)oxy]ethyl}-3H,4H,5H,6H,7H-imidazo[4,5-c]pyridine-5-carbonyl)pyridine] |
| 7.75 nM | < 100 nM | COc1ccc(COc2ccc3c(c2)CN(C(=O)c2ccc(=O)n(C)n2)CC3)nc1 [Example 1.1] |
| 271 nM | 100 to 500 nM | COc1ccc(COc2cnc3c(c2)CN(C(=O)c2ccn(CCF)c(=O)c2)CC3)nc1 [Example 1.29] |
| 1.79 nM | < 100 nM | COc1ccc(COc2ccc3c(c2)CN(c2ccc(OC)cn2)CC3)nc1 [Example 8, 2-(5-Methoxypyridin-2-yl)-7-[(5-methoxypyridin-2-yl)methoxy]-1,2,3,4-tetrahydroisoquinoline] |
| 8.44 nM | < 100 nM | COc1ccc(C(=O)N2CCc3ccc(OCc4ccc(O)cn4)cc3C2)cn1 [Example 35.1, (7-((5-Hydroxypyridin-2-yl)methoxy)-3,4-dihydroisoquinolin-2(1H)-yl)(6-methoxypyridin-3-yl)methanone] |
| 1.72 nM | < 100 nM | COc1ccc(C(=O)Nc2ccc3c(c2)CN(C(=O)c2ccc(OC)nc2)CC3)nc1 [Example 12] |
| 2.48 nM | < 100 nM | COc1ccc(COc2ccc3c(c2)CN(C(=O)c2ccc(OCCF)nc2)CC3)nc1 [Example 34, (6-(2-Fluoroethoxy)pyridin-3-yl)(7-((5-methoxypyridin-2-yl)methoxy)-3,4-dihydroisoquinolin-2(1H)-yl)methanone] |
| 5 nM | < 100 nM | COc1ccc(COc2ccc3c(c2)CN(C(=O)c2ccc(OC)cn2)CC3)nc1 [Example 1.10] |
| 7.87 nM | < 100 nM | COc1ccc(COc2ccc3c(c2)CN(C(=O)c2cnn(C)c2)CC3)nc1 [Example 1.24] |
| 98.5 nM | < 100 nM | COc1ccc(COc2ccc3c(c2)C(=O)N(Cc2ccc(OC)nc2)CC3)nc1 [Example 2, 7-[(5-Methoxypyridin-2-yl)methoxy]-2-[(6-methoxypyridin-3-yl)methyl]-1,2,3,4-tetrahydroisoquinolin-1-one] |
| 161 nM | 100 to 500 nM | COc1ccc(COc2ccc3c(c2)CN(c2cnn(C)c2)CC3)nc1 [Example 29, 7-[(5-Methoxypyridin-2-yl)methoxy]-2-(1-methyl-1H-pyrazol-4-yl)-1,2,3,4-tetrahydroisoquinoline] |
| 29.4 nM | < 100 nM | COc1ccc(COc2cnc3c(c2)CN(C(=O)c2cncc(OC)c2)CC3)nc1 [Example 1.28] |
| 1.78 nM | < 100 nM | COc1ccc(C(=O)N2CCc3ccc(OCc4ccc(OC)cn4)cc3C2)cc1 [Example 1.26] |
| – | < 100 nM | COCCOc1ccc(C(=O)N2CCc3ncc(OCc4ccc(OC)cn4)cc3C2)cn1 [Example 24.2] |
| 1000 nM | > 500 nM | COc1ccc(C(=O)N(C)c2ccc3c(c2)CN(C(=O)c2ccc(OC)nc2)CC3)nc1 [Example 13] |
| 1.26 nM | < 100 nM | COc1ccc(COc2ccc3c(c2)CN(c2ncc(OC)cn2)CC3)nc1 [Example 3, 7-[(5-Methoxypyridin-2-yl)methoxy]-2-(5-methoxypyrimidin-2-yl)-1,2,3,4-tetrahydroisoquinoline] |

| EC50 [1] | EC50 [2] | SMILES |
| --- | --- | --- |
| 6.92 nM | < 100 nM | COc1ccc(COc2ccc3c(c2)CN(C(=O)Nc2ccc(OC)nc2)CC3)nc1 [Example 4.2] |
| 4.24 nM | < 100 nM | COc1ccc(COc2ccc3c(c2)CN(C(=O)c2ccc(=O)n(CCF)n2)CC3)nc1 [Example 1.20] |
| 153 nM | 100 to 500 nM | COc1ccc(COc2ccc3c(c2)CN(C(=O)c2ccc(OC)nc2)CCO3)nc1 [Example 25, 7-[(5-Methoxypyridin-2-yl)methoxy]-4-(6-methoxypyridine-3-carbonyl)-2,3,4,5-tetrahydro-1,4-benzoxazepine] |
| 186 nM | 100 to 500 nM | COc1ccc(COc2ccc3c(c2)CN(c2ccc(OC)nc2)C(=O)C3)nc1 [Example 10, 7-[(5-Methoxypyridin-2-yl)methoxy]-2-(6-methoxypyridin-3-yl)-1,2,3,4-tetrahydroisoquinolin-3-one] |
| 1.7 nM | < 100 nM | COc1ccc(COc2ccc3c(c2)CN(c2cc(OC)ccn2)CC3)nc1 [Example 8.1] |
| 2.21 nM | < 100 nM | COc1ccc(COc2ccc3c(c2)CN(c2ccc(OC)nc2)CC3)nc1 [Example 6] |
| 2.54 nM | < 100 nM | COc1ccc(COc2ccc3c(c2)CN(C(=O)c2ccc(C(F)(F)F)nc2)CC3)nc1 [Example 1.17] |
| 191 nM | 100 to 500 nM | CC(=O)N1CCc2ccc(OCc3ccc(O)cn3)cc2C1 [Example 32, 1-{7-[(5-Hydroxypyridin-2-yl)methoxy]-1,2,3,4-tetrahydroisoquinolin-2-yl}ethan-1-one] |
| 1.8 nM | < 100 nM | COc1ccc(COc2ccc3c(c2)CN(C(=O)c2ccc(N(C)C)nc2)CC3)nc1 [Example 1.14] |
| 48.9 nM | < 100 nM | COc1ccc(COc2ccc3c(c2)CCN(C(=O)c2ccc(OC)nn2)C3)nc1 [Example 1.2] |
| 1000 nM | > 500 nM | COc1ccc(NC(=O)N2CCc3ccccc3C2)cn1 [Example 4.1] |
| 390 nM | 100 to 500 nM | COc1ccc(COc2ccc3c(c2)CN(S(=O)(=O)c2ccc(OC)nc2)CC3)nc1 [Example 18, 7-[(5-Methoxypyridin-2-yl)methoxy]-2-[(6-methoxypyridin-3-yl)sulfonyl]-1,2,3,4-tetrahydroisoquinoline] |
| 5.12 nM | < 100 nM | COc1ccc(COc2ccc3c(c2)CN(C(=O)c2ccc(=O)n(CCF)c2)CC3)nc1 [Example 34.1] |
| 5.45 nM | < 100 nM | COc1ccc(COc2ccc3c(c2)CN(C(=O)c2ccc(=O)n(CCCF)c2)CC3)nc1 [Example 1.19] |
| 1.2 nM | < 100 nM | COc1ccc(COc2ccc3c(c2)CN(C(=O)c2cnc(OC)cn2)CC3)nc1 [Example 1.8] |
| 3.19 nM | < 100 nM | COc1ccc(COc2cnc3c(c2)CN(c2ccc(OC)cn2)CC3)nc1 [Example 27, 6-(5-Methoxypyridin-2-yl)-3-[(5-methoxypyridin-2-yl)methoxy]-5,6,7,8-tetrahydro-1,6-naphthyridine] |
| 1.05 nM | < 100 nM | C=CCOc1ccc(COc2ccc3c(c2)CN(C(=O)c2ccc(OC)nc2)CC3)nc1 [Example 35, (7-((5-(Allyloxy)pyridin-2-yl)methoxy)-3,4-dihydroisoquinolin-2(1H)-yl)(6-methoxypyridin-3-yl)methanone] |
| 333 nM | 100 to 500 nM | Cn1cc(C(=O)N2CCc3ccc(OCc4ccc(O)cn4)cc3C2)ccc1=O [Example 40, 5-(7-((5-Hydroxypyridin-2-yl)methoxy)-1,2,3,4-tetrahydroisoquinoline-2-carbonyl)-1-methylpyridin-2(1H)-one] |
| 5.2 nM | < 100 nM | COc1ccc(COc2ccc3c(c2)CN(C(=O)c2ccc(OC)nn2)CC3)nc1 [Example 1.11] |
| 37.4 nM | < 100 nM | COc1ccc(OCCOc2ccc3c(c2)CN(C(=O)c2ccc(OC)nc2)CC3)nc1 [Example 19, 7-{2-[(5-Methoxypyridin-2-yl)oxy]ethoxy}-2-(6-methoxypyridine-3-carbonyl)-1,2,3,4-tetrahydroisoquinoline] |

| SMILES | EC50 [1] | EC50 [2] |
| --- | --- | --- |
| COc1ccc(COc2ccc3c(c2)CNCC3)nc1 [Example 1.30, 7-[(5-Methoxypyridin-2-yl)methoxy]-1,2,3,4-tetrahydroisoquinolin-2-ium chloride] | 1000 nM | > 500 nM |

Reference: patent publication US11992535B2, “Compounds and probes for imaging huntingtin protein” (CHDI Foundation, Inc., priority 2019, dated 2024)
